# Measured values taken from patent US11186541B2, “Potent inhibitors of aspartate N-acetyl-transferase for the treatment of Canavan disease” (The University of Toledo, priority 2016, dated 2021).
# Biological target: T1, Recombinant maltose-binding protein-human aspartate N-acetyltransferase (MBP-ANAT) fusion enzyme (Homo sapiens, UniProt Q8N9F0)
# T1 construct: His tag (C); made in house; host or cells: E. coli NiCo21(DE3)
# T1 sequence (Q8N9F0 1-302): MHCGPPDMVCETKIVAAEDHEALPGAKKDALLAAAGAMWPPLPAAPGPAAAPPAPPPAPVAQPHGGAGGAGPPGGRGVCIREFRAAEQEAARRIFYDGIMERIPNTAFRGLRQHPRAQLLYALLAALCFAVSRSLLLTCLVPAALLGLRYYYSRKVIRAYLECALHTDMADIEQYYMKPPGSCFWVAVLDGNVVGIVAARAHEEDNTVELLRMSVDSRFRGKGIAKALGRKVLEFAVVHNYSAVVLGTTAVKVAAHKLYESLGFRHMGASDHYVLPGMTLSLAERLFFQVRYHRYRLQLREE
# Test: ANAT activity, DTNB-based assay (inhibitor screening and kinetic evaluation)
# Type: biochemical
# Conditions: not given
# Text: ANAT is difficult to purify. […] This can be accomplished, for example, as described in U.S. Provisional Patent Application No. 62/216,700, which is incorporated herein by reference for all purposes. […] An optimized thiol detection assay can be used to kinetically characterize this newly produced enzyme form.
# Recombinant maltose-binding protein-human aspartate N-acetyltransferase (MBP-ANAT) fusion enzyme was expressed and purified as described in U.S. Provisional Patent Application No. 62/216,700. Briefly, NiCo21(DE3) competent E. coli cells (New England Biolabs, Ipswich, Mass.) were transformed with an MBP-ANAT-his construct and selected on LB plates with 30 μg/ml kanamycin. Colonies from these plates were used to inoculate starter cultures in LB media. After diluting each starter culture by 100-fold in 1 L of LB media, cell growth was continued for about 2 hours at 37° C. until A600 reached 0.6. IPTG was then added to a final concentration of 0.5 mM, and protein expression was induced at 16° C. for 20 hours. To purify MBP-ANAT, a Ni Sepharose 6 Fast Flow column (GE healthcare, Pittsburgh, Pa.) was equilibrated with Buffer A (20 mM potassium phosphate, pH 7.4, 300 mM sodium chloride, 10% glycerol, and 20 mM imidazole). Cell lysate was loaded on to the column and partially purified ANAT was then eluted with a linear gradient of Buffer B (buffer A containing 400 mM imidazole). The active fractions were pooled and loaded onto an amylose column and highly purified ANAT fusion was then obtained by elution with a 0-10 mM linear maltose gradient. ANAT activity was measured by an established DTNB-based assay using a SpectraMax 190 spectrophotometer plate reader (Molecular Devices, Calif.). A typical activity assay contained 20 mM HEPES, pH 7.4, 150 mM NaCl, 5% glycerol, 40 μM DTNB, 40 μM acetyl-CoA, and 2 mM L-aspartate in a total volume of 200 μl. Reaction was monitored at 412 nm (ε=14.15 mM^−1 cm^−1) for at least 15 minutes.
# Three different compound libraries were used for initial screening of ANAT inhibitors. These small compound libraries were assembled in-house: an amino acids library contained 96 compounds, a metabolite library contained 96 compounds, and a second amino acids library contained 64 compounds. An additional constrained analogs library contained 77 compounds that were purchased from commercial sources.
row,Compound,ANAT inhibitor potency (in words)
1,O=C(O)C[C@H](NC(=O)OCc1ccccc1)C(=O)O [N-[(benzyloxy)carbonyl]-L-aspartic acid],surprisingly high potency
2,NC(=O)[C@@H](N)CC(=O)O [L-aspartic acid amide],neither alternative substrates nor inhibitors

# Same assay, conditions: read-out: inhibition constant against ANAT
row,Compound,Ki [µM]
1,O=C1CC[C@H](C(=O)O)N1 [2-D-pyroglutamic acid],> 2000
2,O=C(O)c1cc(-c2ccccc2F)no1 [3-(2-fluoro-phenyl)-isoxazole-5-carboxylic acid],> 2000

# The next lines start with the values.
row,Ki [µM],Compound
1,> 2000,"Cc1noc(-c2cccc(C(=O)O)c2)n1 [3-(3-methyl-1,2,4-oxadiazol-5-yl-benzoic acid]"
2,130,O=C(O)CC[C@H](NC(=O)c1ccccc1)C(=O)O [N-benzoyl-L-glutamate]
3,> 2000,"O=C(O)C[C@H](NC(=O)c1ccccc1)C(=O)O [comparable L-aspartate derivative, sodium N-benzoyl-L-aspartate]"
